Measurements published in patent US9273063B2, “Method for preparing a rifaximin product” (Salix Pharmaceuticals, Inc., priority 2007, dated 2016).

Columns and labels:
[1] = Dissolution in ethanol, amorphous vs crystalline form; assay type: physicochemical; conditions: without stirring
Experimental: The dissolution profile of the substance in amorphous form was also determined, and compared with that of the substance in crystalline form.

[2] = Water solubility in dissolution tester (distilled water, 37° C., 100 rpm, spectrophotometric analysis); assay type: physicochemical; conditions: 37° C.±0.5° C.
Experimental: Moreover, with regard to water solubility, after conditioning a dissolution tester (Pharma Test Type PTW S III s/n 5390) using distilled water at a temperature of 37° C.±0.5° C. at a speed of 100 rpm, four dissolutions were carried out, in each of which the first three vessels of the dissolution tester were used for the substance in crystalline form and the last three for the substance in amorphous form.
10 ml of the solute were withdrawn from each vessel after 15 minutes of stirring; the withdrawn samples were filtered with 0.45 μm filters and subjected to spectophotometric analysis, repeating the operation after 30 and 60 minutes.

| dissolved percentage compared with that of the substance in crystalline form [2] | concentration of dissolved substance relative to that of the substance in amorphous form ([2]; after one hour of dissolution) | Structure (SMILES) | dissolution behaviour in ethanol [1] |
| --- | --- | --- | --- |
| one order of magnitude greater |  | CO[C@H]1/C=C/O[C@@]2(C)Oc3c(C)c(O)c4c(O)c(c5c(nc6cc(C)ccn65)c4c3C2=O)NC(=O)/C(C)=C\C=C\[C@H](C)[C@H](O)[C@@H](C)[C@@H](O)[C@@H](C)[C@H](OC(C)=O)[C@@H]1C [amorphous form, Rifaximin] | easily dissolves in ethanol even without stirring |
|  | about 7% | CO[C@H]1/C=C/O[C@@]2(C)Oc3c(C)c(O)c4c(O)c(c5c(nc6cc(C)ccn65)c4c3C2=O)NC(=O)/C(C)=C\C=C\[C@H](C)[C@H](O)[C@@H](C)[C@@H](O)[C@@H](C)[C@H](OC(C)=O)[C@@H]1C [crystalline form, Rifaximin] | less wettable |
